{"source": "patent US20230355646A1", "about": "“AUTOPHAGY ACTIVATOR” (Resonac Corporation, priority 2020, published 2023)", "test_system": "LC3 gene", "test": "LC3 gene expression promoting effect in human neuroblastoma SH-SY5Y in the presence of amyloid β", "format": "cell-based", "description": "In the presence of an autophagy activator, the expression levels of the LC3 gene, ATG5 gene, and ATG7 gene in human neuroblastoma (SH-SY5Y; obtained from ATCC) were measured by the following test method, and the effect of promoting the expression of the LC3 gene, ATG5 gene, and ATG7 gene by an autophagy activator was evaluated.\nIn the following examples and comparative examples, tests were performed by adding amyloid β, which is known to cause a decrease in autophagy in nerve cells, to each medium.\nSH-SY5Y cells were prepared at a seeding density of 10000 cells/cm^2 and cultured for 24 hours in D-MEM medium/Ham's F-12 medium (manufactured by Sigma-Aldrich) to which 10% fetal bovine serum (manufactured by MP Biomedicals) was added. Next, in Example 15, the methyl hesperidin DMSO solution was added to the medium such that the final concentration of methyl hesperidin was 10^−3% (V/V) and the final concentration of DMSO was 0.1% (V/V). […]\nThen, using Nucleospin (registered trademark) RNA kit (manufactured by Takara Bio Inc.), RNA was extracted from SH-SY5Y cells in each example, and cDNA was synthesized from the obtained RNA. Next, using this cDNA as a template, by quantitative real-time PCR, the expression level of each gene was quantified using primers (manufactured by Takara Bio Inc.) specific to the LC3 gene, ATG5 gene, and ATG7 gene, respectively. […]", "data": [{"smiles": "COc1ccc([C@@H]2CC(=O)c3c(O)cc(O[C@@H]4O[C@H](CO[C@@H]5O[C@@H](C)[C@H](O)[C@@H](O)[C@H]5O)[C@@H](O)[C@H](O)[C@H]4O)cc3O2)cc1O", "note": "[Comparative Example 2, hesperidin]", "values": [{"measurement": "expression level of the LC3 gene (in words)", "setting": "SH-SY5Y cells with amyloid β, compared to DMSO and amyloid β of Comparative Example 5", "value": "increased"}, {"measurement": "Relative gene expression level LC3", "setting": "SH-SY5Y cells, 20 μM amyloid β present, 10^−2% (V/V) methyl hesperidin or hesperidin, additional ingredient where in the example, 48 hours, Reference Example 3 = 1.00", "value": 2.41}]}]}
